Measured values taken from paper PMC5824666, “The P-type ATPase inhibiting potential of polyoxotungstates” (Metallomics, 2018).
Where “and” joins values, the source holds several entries; their conditions need not be identical. Equal values may be shown once. Read-outs that look alike come from different tables or passages of the source.

How the values were obtained:
SR Ca^2+-ATPase [1] = molecular target: T1, SR Ca^2+-ATPase (Oryctolagus cuniculus, UniProt P04191); experiment: Steady-state SR Ca2+-ATPase ATP hydrolysis, coupled pyruvate kinase/lactate dehydrogenase assay; assay type: biochemical, rabbit; settings: for IC50: SR vesicles from skeletal muscle, 25 °C, 2.5 mM ATP, calcimycin 4% (w/w); for Type of inhibition of Ca^2+-ATPase: Lineweaver-Burk, TeW6 at 100 μM
T1 construct: Isolated sarcoplasmic reticulum vesicles (SRVs), prepared from rabbit skeletal muscles as described elsewhere; from tissue; host or cells: rabbit skeletal muscle, sarcoplasmic reticulum vesicles
T1 sequence (P04191 1-994 isoform P04191-2): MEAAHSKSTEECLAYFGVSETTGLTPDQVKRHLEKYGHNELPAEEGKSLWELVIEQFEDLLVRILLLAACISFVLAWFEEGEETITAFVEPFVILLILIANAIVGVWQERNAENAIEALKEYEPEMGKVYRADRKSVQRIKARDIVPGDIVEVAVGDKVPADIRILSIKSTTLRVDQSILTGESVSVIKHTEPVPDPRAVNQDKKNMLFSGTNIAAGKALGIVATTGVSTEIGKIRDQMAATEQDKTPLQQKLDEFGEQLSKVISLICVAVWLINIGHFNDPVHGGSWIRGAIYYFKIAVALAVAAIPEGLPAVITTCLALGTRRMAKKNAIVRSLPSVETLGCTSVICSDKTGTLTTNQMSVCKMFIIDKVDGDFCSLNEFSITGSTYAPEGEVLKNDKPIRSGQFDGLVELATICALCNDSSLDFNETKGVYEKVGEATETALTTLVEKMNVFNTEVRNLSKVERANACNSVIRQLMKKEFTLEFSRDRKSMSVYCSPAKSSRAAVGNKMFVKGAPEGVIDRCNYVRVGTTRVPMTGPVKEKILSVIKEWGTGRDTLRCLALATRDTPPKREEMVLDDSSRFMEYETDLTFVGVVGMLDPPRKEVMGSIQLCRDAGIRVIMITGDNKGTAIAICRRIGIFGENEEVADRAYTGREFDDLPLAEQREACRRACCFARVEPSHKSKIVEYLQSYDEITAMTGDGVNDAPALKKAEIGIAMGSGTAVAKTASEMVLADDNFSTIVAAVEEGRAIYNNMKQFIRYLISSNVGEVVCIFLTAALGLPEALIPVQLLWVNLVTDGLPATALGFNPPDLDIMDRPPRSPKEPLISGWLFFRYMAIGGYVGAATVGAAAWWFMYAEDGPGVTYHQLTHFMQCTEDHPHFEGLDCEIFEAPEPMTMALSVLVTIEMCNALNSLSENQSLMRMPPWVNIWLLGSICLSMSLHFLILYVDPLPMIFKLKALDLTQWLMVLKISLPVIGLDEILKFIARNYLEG
Method: All reagents used for the preparation of the calcium pump vesicles were purchased from Sigma-Aldrich (Portugal). Isolated sarcoplasmic reticulum vesicles (SRVs), prepared from rabbit skeletal muscles as described elsewhere,[33] were suspended in 0.1 M KCl, 10 mM HEPES (pH 7.0), diluted 1 : 1 with 2.0 M sucrose and frozen in liquid nitrogen for storage at –80 °C. The protein concentration was determined spectrophotometrically at 595 nm in the presence of 0.125% of sodium dodecyl sulphate (SDS) by Bradford method with bovine serum albumin as a standard. The percentage of each protein present in the SRV preparations was determined by densitometry analysis of SDS-PAGE (7.5% acrylamide) protein bands. The SR Ca^2+-ATPase constituted at least 70% of the total protein amount in the SR-vesicles according to SDS-PAGE. The sarcoplasmic reticulum Ca^2+-ATPase-1 (SERCA-1) was the predominant isoform in our SR preparations.[42]
Steady-state assays of the SR Ca^2+-ATPase were measured spectrophotometrically at 25 °C using the coupled enzyme pyruvate kinase/lactate dehydrogenase assay (Scheme 1) as described elsewhere.[42] Briefly, after the addition of the enzymes (pyruvate kinase and lactate dehydrogenase) and the substrate phosphoenolpyruvate to the medium, the experiment was initiated by adding NADH (0.25 mM) and the vesicles containing Ca^2+-ATPase (10 μg mL^–1).
ATP (2.5 mM) was added and the absorbance was recorded for about 1 minute (basal activity). Afterwards, the calcium ionophore calcimycin 4% (w/w), which releases again the Ca^2+ ions, that were pumped in by the ATPase, was added and the decreasing NADH absorbance at 340 nm was measured for about 2 minutes (uncoupled ATPase activity). This was done to increase the ATPase activity (due to the ionophore-mediated impairment of the Ca^2+ gradient) in order to better study the effect of the inhibitors and to ensure that the SR Ca^2+-ATPase vesicles are not leaky. For the experiments including POTs, freshly prepared POT solutions (10 mM and 1 mM for all POTs except for Se2W29 1 mM and 0.1 mM) were added to the medium prior to the addition of SR Ca^2+-ATPase. The ATPase activity and its inhibition was measured taking into account the decrease of the OD (optical density) per minute in the absence (100%) and in the presence of the investigated POTs.[33] The detection system was not affected by the POTs themselves (not even at their highest concentrations), which was confirmed by a rapid decrease in absorbance at 340 nm upon addition of 40 μM ADP after the assay. All experiments were performed at least in triplicates. The inhibitory power of the investigated POTs was evaluated by determining the respective IC50 value, that is, the POT concentration needed to induce a 50% inhibition of the Ca^2+-ATPase enzyme activity.

[2] = tested on: Na^+/K^+-ATPase from basal membrane of opercular epithelium; experiment: Epithelial short circuit current (Isc) in Ussing chambers ex vivo, POT added basolaterally; assay type: cell-based, killifish (F. heteroclitus); settings: basolateral; for Maximum inhibition: % of basal Isc
From the text: Epithelial tissues can transport ions and generate a transepithelial voltage termed “active transport potential”, which is caused by the asymmetric distribution of ion channels and transporters on the apical and basolateral membranes. The net movement of charges from the apical to the basolateral side (and vice versa) generates a voltage equal to the voltage differences between the apical and basolateral membranes. Ex vivo, the short circuit current (Isc) is an accurate reflection of the secretory/absorptive capacity of the tissue when short-circuited. In the opercular epithelium of killifish used for our studies, Isc is a direct measure of apical chloride secretion mediated by chloride channels, which relies on an intact basolateral Na^+/K^+-ATPase function.[43],[44]
Methodology for the ex vivo opercular epithelia preparation followed our current methods.[45] Fish were anaesthetized with 2-phenoxyethanol (1 : 2000 v/v), sacrificed by decapitation and the cranium was cut longitudinally. The gills and other tissue remains were removed carefully and the epithelial skin covering the opercular bone were dissected out and transferred to fresh-gassed saline (99.7 : 0.3 O2/CO2) with the following composition (all values in mM): NaCl, 160; MgSO4, 0.93; NaH2PO4, 3.0; CaCl2, 1.5; NaHCO3, 17.85; KCl, 3.0; glucose, 5.5; HEPES (pH 7.8), 5.0. The epithelia were overlaid onto a thin bore polythene net, protected between two parafilm gaskets and pinned over the circular aperture of a tissue holder (P2410, 0.20 cm^2, Physiological Instruments, San Diego, USA), with the perimeter area lightly greased with vacuum silicone to minimize tissue edge damage. The mounted tissue was positioned between the two halves of the Ussing chamber (P2400, Physiological Instruments, San Diego, USA) with 4 mL of gassed saline at 22 °C and gassed with a 99.7 : 0.3 O2/CO2 mix to provide oxygenation, good mixing by gas lift and pH control (pH = 7.8).
The preparations were left to stand for at least 60 min or until a steady basal measurement of bioelectrical variables was achieved. Measurement of the short circuit current (Isc, μA cm^–2) was performed at symmetric conditions under voltage clamp to 0 mV. The open circuit potential (Vt, mV) and Isc were monitored by means of Ag/AgCl electrodes connected to the chambers by 3 mm bore agar bridges (1 M KCl in 3% agar). Clamping of epithelia to 0 mV and recording of Isc was performed by VCC600 voltage clamp amplifiers (Physiologic Instruments, San Diego, USA). Epithelial resistance (Rt, Ω cm^2) was manually calculated (Ohm's law) using the current deflections induced by bilateral 1 mV pulses of 3 s every minute. Bioelectrical data were continuously digitized through a Lab-Trax-4 (WPI, Sarasota, US) onto a Macbook laptop using Labscribe3 Software (Iworks systems, Dover, US). Upon signal baseline stabilization, freshly prepared POT solutions were added to the basal or the apical side of the chamber (Fig. 2) and the effects on the Na^+/K^+-ATPase from basal membrane or the chloride channel forming the apical membrane were followed for 60 to 90 minutes. The maximum inhibitory effect (in %) of the POTs on the ATPase activity and the effective time (ET50), which is the time necessary to reach 50% of the maximum effects (in minutes), was determined by measuring the % decrease of short circuit current (Isc, μA cm^–2) in the absence (100% activity) and presence of the POTs. All the experiments were performed at least in triplicates. Calculations of the ET50 and maximum effect values were performed using GraphPad Prism version 6.00 for Macintosh (GraphPad Software, La Jolla California USA).

SR Ca^2+-ATPase [3] = molecular target: T1, SR Ca^2+-ATPase; design: method as in PMID 22178669; settings: cited from earlier work; for IC50: previously reported; for Type of inhibition of Ca^2+-ATPase: regarding the natural ligand MgATP
Na^+/K^+-ATPase = settings: previous studies; cited from earlier work

For K14[As2W19O67(H2O)]·23H2O, the IC50 (SR Ca^2+-ATPase [1]) was 28 µM and the “Effect on ATPase activity after 30 minutes” value (from here on “Effect on ATPase activity”) ([2]; 10 μM compound) was “no effect”.
In the case of [O]=[W](=[O])([OH])[OH] [orthotungstate], the IC50 (SR Ca^2+-ATPase [3]) is given as 400 µM and the IC50 (Na^+/K^+-ATPase) is given as 1500 µM.
In the case of K6[α-P2W18O62]·14H2O, the “Type of inhibition of Ca^2+-ATPase” value (SR Ca^2+-ATPase [1]) is reported as “mixed type of inhibition”, the “ET50 (time to reach 50% of the maximum effect)” value ([2]; 0.5 μM compound) is reported as 8.2 (0.5 μM) min and the Maximum inhibition ([2]; 0.5 μM compound) is reported as 86%. The “ET50 (time to reach 50% of the maximum effect)” value ([2]; 1 μM compound) was 6.5 (1 μM) min, the Maximum inhibition ([2]; 1 μM compound, 1 µM) was 99% and the “ET50 (time to reach 50% of the maximum effect)” value ([2]; 10 μM compound) was 4.3 (10 μM) min. The Maximum inhibition ([2]; 10 μM compound) was ~100%.
For decaniobate [Nb10], the IC50 (SR Ca^2+-ATPase [3]) is given as 35 µM and the “Type of inhibition of Ca^2+-ATPase” value (SR Ca^2+-ATPase [3]) is given as “non-competitive”.
For Na10[A-α-SiW9O34]·16H2O, the IC50 (SR Ca^2+-ATPase [1]) was 16 µM and the “Effect on ATPase activity” value ([2]; 10 μM compound) was “no effect”.
With C[C@@H]1O[C@@H](O[C@H]2C[C@@H](O)[C@]3(CO)[C@H]4[C@H](O)C[C@]5(C)[C@@H](C6=CC(=O)OC6)CC[C@]5(O)[C@@H]4CC[C@]3(O)C2)[C@H](O)[C@H](O)[C@H]1O [Ouabain, reference compound] the “ET50 (time to reach 50% of the maximum effect)” value ([2]; 10 μM compound) was 3.2 ± 0.2 min and 3.2 min and 3.2 (10 μM) min and the Maximum inhibition ([2]; 10 μM compound) was 100%.
With Na6[TeW6O24]·22H2O the “Type of inhibition of Ca^2+-ATPase” value (SR Ca^2+-ATPase [1]) was “mixed type of inhibition”, the IC50 (SR Ca^2+-ATPase [1]) was 200 µM and the “ET50 (time to reach 50% of the maximum effect)” value ([2]; 10 μM compound) was 60 (10 μM) min. For the same molecule, the Maximum inhibition ([2]; 10 μM compound) was 10%.
With K6H2[TiW11CoO40]·13H2O [CoW11Ti] the “ET50 (time to reach 50% of the maximum effect)” value ([2]; 10 μM compound) was 10 (10 μM) min and the Maximum inhibition ([2]; 10 μM compound) was 75%.
For [O]=[V]([O-])([O-])[O][V]1(=[O])[O][V]2(=[O])[O][V](=[O])([O][V](=[O])([O-])[O-])[O][V](=[O])([O]2)[O][V]2(=[O])[O][V](=[O])([O][V](=[O])([O-])[O-])[O][V](=[O])([O]1)[O]2 (stereo not shown) [V10, decavanadate], the IC50 (SR Ca^2+-ATPase [3]) is listed as 15 µM and the “Type of inhibition of Ca^2+-ATPase” value (SR Ca^2+-ATPase [3]) is listed as “non-competitive”.
For K12[α-H2P2W12O48]·16H2O, the IC50 (SR Ca^2+-ATPase [1]) was 11 µM and the “Effect on ATPase activity” value ([2]; 10 μM compound) was “no effect”.
With Na12[H4W22O74]·50H2O the IC50 (SR Ca^2+-ATPase [1]) was 68 µM and the “Effect on ATPase activity” value ([2]; 10 μM compound) was “no effect”.
In the case of K9(C2H8N)5[H10Se2W29O103]·30H2O, the “ET50 (time to reach 50% of the maximum effect)” value ([2]; 1 μM compound) is reported as 6.5 (1 μM) min and the Maximum inhibition ([2]; 1 μM compound) is reported as 14%.
With Na9[B-α-AsW9O33]·27H2O the IC50 (SR Ca^2+-ATPase [1]) was 20 µM, the “ET50 (time to reach 50% of the maximum effect)” value ([2]; 10 μM compound) was 8.5 min and 8.5 (10 μM) min and the Maximum inhibition ([2]; 10 μM compound) was 66%.
